Measured values as given in ChEMBL document CHEMBL4507274 (2021).

Key:
[1] = target: RAC-alpha serine/threonine-protein kinase (Homo sapiens) (UniProt P31749); settings: Compound concentration 100.0 nM
[2] = target: 5'-AMP-activated protein kinase catalytic subunit alpha-1 (Homo sapiens) (UniProt Q13131); settings: Compound concentration 100.0 nM
[3] = target: BMP-2-inducible protein kinase (Homo sapiens) (UniProt Q9NSY1); settings: Compound concentration 100.0 nM
[4] = target: Serine/threonine-protein kinase BRSK2 (Homo sapiens) (UniProt Q8IWQ3); settings: Compound concentration 100.0 nM
[5] = target: Cyclin-dependent kinase 11B (Homo sapiens) (UniProt P21127); settings: Compound concentration 100.0 nM
[6] = target: Cyclin-dependent kinase 5 (Homo sapiens) (UniProt Q00535); settings: Compound concentration 100.0 nM
[7] = target: Dual specificity protein kinase CLK3 (Homo sapiens) (UniProt P49761); settings: Compound concentration 100.0 nM
[8] = target: Macrophage colony-stimulating factor 1 receptor (Homo sapiens) (UniProt P07333); settings: Compound concentration 100.0 nM
Macrophage colony-stimulating factor 1 receptor (Homo sapiens), sequence (P07333 whole entry): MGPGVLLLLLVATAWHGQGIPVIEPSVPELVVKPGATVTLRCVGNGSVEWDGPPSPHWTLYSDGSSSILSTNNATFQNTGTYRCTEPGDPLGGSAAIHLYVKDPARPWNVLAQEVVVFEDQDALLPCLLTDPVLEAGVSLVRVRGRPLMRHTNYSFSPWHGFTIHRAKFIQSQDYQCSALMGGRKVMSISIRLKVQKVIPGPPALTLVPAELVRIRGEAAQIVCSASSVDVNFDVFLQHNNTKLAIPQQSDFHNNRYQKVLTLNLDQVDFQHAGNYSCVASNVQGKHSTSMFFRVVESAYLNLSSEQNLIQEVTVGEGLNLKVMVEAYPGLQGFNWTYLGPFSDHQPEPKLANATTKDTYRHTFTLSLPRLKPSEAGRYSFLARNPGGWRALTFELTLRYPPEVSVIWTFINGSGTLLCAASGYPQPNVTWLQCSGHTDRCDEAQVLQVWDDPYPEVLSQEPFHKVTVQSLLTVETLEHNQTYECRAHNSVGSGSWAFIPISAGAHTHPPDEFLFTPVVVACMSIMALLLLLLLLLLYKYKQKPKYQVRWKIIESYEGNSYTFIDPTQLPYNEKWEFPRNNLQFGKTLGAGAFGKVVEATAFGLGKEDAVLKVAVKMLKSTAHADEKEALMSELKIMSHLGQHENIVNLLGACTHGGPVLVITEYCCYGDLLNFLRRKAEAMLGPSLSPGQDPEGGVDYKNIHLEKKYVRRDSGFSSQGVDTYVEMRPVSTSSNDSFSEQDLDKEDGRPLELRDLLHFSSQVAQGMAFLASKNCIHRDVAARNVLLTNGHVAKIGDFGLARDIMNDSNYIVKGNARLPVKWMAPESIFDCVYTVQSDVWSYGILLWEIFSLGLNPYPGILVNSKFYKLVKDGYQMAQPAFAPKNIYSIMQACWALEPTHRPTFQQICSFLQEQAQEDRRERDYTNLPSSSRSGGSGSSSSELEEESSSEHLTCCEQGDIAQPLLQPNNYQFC

[9] = target: Macrophage colony-stimulating factor 1 receptor (Homo sapiens) (UniProt P07333); settings: Compound concentration 100.0 nM; remark: listed apart in the source
[10] = target: Serine/threonine-protein kinase DCLK2 (Homo sapiens) (UniProt Q8N568); settings: Compound concentration 100.0 nM
[11] = target: Ephrin type-A receptor 5 (Homo sapiens) (UniProt P54756); settings: Compound concentration 100.0 nM
[12] = target: Mitogen-activated protein kinase 1 (Homo sapiens) (UniProt P28482); settings: Compound concentration 100.0 nM
[13] = target: Insulin receptor-related protein (Homo sapiens) (UniProt P14616); settings: Compound concentration 100.0 nM
Insulin receptor-related protein (Homo sapiens), sequence (P14616 27-742 limits assumed): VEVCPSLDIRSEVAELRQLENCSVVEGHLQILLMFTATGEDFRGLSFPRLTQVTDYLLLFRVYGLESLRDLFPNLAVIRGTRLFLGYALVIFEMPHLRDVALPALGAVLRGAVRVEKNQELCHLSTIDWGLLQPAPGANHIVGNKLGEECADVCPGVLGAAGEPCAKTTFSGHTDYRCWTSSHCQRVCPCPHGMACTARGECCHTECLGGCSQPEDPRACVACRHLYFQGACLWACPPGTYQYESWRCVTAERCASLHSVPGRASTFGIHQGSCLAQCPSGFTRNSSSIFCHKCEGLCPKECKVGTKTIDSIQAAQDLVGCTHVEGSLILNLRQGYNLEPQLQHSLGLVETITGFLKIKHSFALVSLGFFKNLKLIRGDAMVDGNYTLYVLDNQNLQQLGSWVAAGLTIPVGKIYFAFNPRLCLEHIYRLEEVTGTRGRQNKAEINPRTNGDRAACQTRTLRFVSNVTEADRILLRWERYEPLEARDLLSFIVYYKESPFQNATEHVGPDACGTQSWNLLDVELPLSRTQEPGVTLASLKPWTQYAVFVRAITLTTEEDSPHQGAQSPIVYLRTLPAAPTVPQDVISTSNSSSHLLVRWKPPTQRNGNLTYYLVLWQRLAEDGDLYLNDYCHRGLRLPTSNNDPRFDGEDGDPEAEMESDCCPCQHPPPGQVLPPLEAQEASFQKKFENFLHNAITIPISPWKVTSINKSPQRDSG
Insulin receptor-related protein (Homo sapiens), sequence (P14616 747-1297 limits assumed): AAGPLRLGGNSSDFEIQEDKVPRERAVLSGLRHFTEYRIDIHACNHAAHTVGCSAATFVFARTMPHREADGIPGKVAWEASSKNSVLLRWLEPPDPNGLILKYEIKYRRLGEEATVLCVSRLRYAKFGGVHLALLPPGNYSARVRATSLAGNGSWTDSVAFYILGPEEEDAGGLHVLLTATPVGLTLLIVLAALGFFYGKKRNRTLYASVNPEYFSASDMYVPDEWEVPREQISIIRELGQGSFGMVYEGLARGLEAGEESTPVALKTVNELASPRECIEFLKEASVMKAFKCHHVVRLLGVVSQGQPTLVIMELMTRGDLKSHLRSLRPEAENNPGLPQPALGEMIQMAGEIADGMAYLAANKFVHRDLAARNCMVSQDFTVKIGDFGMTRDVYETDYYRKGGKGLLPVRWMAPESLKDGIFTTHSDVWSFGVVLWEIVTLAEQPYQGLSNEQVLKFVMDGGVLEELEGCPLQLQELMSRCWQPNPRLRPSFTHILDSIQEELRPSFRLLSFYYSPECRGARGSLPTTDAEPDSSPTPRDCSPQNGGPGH

[14] = target: Interleukin-1 receptor-associated kinase 1 (Homo sapiens) (UniProt P51617); settings: Compound concentration 100.0 nM
Interleukin-1 receptor-associated kinase 1 (Homo sapiens), sequence (P51617 whole entry, looked up): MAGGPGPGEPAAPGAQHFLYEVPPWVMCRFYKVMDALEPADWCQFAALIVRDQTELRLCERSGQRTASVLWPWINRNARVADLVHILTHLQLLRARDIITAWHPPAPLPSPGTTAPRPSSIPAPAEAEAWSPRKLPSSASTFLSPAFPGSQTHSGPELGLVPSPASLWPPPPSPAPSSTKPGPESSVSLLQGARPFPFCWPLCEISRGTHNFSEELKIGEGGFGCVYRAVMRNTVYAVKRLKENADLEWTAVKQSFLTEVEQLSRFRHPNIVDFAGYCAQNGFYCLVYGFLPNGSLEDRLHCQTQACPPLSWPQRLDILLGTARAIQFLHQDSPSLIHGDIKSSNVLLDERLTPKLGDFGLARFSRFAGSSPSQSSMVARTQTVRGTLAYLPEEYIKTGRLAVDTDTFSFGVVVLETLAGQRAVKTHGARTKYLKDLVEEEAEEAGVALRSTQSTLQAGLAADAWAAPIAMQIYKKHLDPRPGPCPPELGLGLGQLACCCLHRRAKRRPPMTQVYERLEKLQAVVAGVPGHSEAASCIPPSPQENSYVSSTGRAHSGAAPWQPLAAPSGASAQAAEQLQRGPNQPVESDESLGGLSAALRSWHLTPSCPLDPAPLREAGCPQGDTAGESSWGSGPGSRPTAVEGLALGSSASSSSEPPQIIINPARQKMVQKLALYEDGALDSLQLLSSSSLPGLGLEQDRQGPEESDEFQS

[15] = target: Serine/threonine-protein kinase LATS1 (Homo sapiens) (UniProt O95835); settings: Compound concentration 100.0 nM
[16] = target: Serine/threonine-protein kinase STK11 (Homo sapiens) (UniProt Q15831); settings: Compound concentration 100.0 nM
[17] = target: Tyrosine-protein kinase Lyn (Homo sapiens) (UniProt P07948); settings: Compound concentration 100.0 nM
[18] = target: T1, MAP kinase-activated protein kinase 5 (Homo sapiens) (UniProt Q8IW41); settings: Compound concentration 100.0 nM
T1 sequence (whole entry): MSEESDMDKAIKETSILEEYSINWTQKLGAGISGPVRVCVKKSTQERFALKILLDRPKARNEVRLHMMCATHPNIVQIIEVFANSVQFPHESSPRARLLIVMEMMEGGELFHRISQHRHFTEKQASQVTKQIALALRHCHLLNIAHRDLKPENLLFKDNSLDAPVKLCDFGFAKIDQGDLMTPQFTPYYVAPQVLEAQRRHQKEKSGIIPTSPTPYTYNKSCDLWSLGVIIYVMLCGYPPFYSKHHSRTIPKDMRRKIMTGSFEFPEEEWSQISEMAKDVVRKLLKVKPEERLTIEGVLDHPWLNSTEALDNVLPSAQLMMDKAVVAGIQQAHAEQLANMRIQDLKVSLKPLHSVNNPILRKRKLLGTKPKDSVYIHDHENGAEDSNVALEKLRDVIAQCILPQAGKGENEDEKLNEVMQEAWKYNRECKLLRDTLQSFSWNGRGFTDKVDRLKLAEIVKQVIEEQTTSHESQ

[19] = target: Dual specificity mitogen-activated protein kinase kinase 4 (Homo sapiens) (UniProt P45985); settings: Compound concentration 100.0 nM
[20] = target: Misshapen-like kinase 1 (Homo sapiens) (UniProt Q8N4C8); settings: Compound concentration 100.0 nM
[21] = target: Myosin light chain kinase 2, skeletal/cardiac muscle (Homo sapiens) (UniProt Q9H1R3); settings: Compound concentration 100.0 nM
[22] = target: Serine/threonine-protein kinase Nek4 (Homo sapiens) (UniProt P51957); settings: Compound concentration 100.0 nM
[23] = target: Serine/threonine-protein kinase PAK 2 (Homo sapiens) (UniProt Q13177); settings: Compound concentration 100.0 nM
Serine/threonine-protein kinase PAK 2 (Homo sapiens), sequence (Q13177 whole entry): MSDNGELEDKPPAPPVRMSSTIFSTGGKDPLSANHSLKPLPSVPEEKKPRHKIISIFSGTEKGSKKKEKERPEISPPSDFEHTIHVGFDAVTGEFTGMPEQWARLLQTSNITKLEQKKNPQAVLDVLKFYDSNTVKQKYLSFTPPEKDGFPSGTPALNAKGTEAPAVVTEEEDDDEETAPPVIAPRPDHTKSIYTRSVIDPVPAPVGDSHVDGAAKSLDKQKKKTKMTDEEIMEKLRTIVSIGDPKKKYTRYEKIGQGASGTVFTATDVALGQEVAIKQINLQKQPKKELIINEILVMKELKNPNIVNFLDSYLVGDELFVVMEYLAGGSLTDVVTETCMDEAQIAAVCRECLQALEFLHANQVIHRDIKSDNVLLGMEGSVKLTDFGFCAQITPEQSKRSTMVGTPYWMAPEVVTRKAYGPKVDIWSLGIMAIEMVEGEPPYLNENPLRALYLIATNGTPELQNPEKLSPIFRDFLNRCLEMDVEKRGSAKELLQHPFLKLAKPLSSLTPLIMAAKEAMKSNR

[24] = target: Serine/threonine-protein kinase PAK 5 (Homo sapiens) (UniProt Q9P286); settings: Compound concentration 100.0 nM
[25] = target: Serine/threonine-protein kinase PknB (Mycobacterium tuberculosis) (UniProt P9WI81); settings: Compound concentration 100.0 nM
[26] = target: Serine/threonine-protein kinase D3 (Homo sapiens) (UniProt O94806); settings: Compound concentration 100.0 nM
[27] = target: Serine/threonine-protein kinase SIK3 (Homo sapiens) (UniProt Q9Y2K2); settings: Compound concentration 100.0 nM
[28] = tested on: Proto-oncogene tyrosine-protein kinase receptor Ret (Homo sapiens), P07949 [V804L]; settings: Compound concentration 100.0 nM
[29] = tested on: Proto-oncogene tyrosine-protein kinase receptor Ret (Homo sapiens), P07949 [V804M]; settings: Compound concentration 100.0 nM
[30] = target: Rho-associated protein kinase 2 (Homo sapiens, UniProt O75116); settings: Compound concentration 100.0 nM
[31] = target: Ribosomal protein S6 kinase alpha-3 (Homo sapiens) (UniProt P51812); settings: Compound concentration 100.0 nM
[32] = target: Ribosomal protein S6 kinase alpha-6 (Homo sapiens) (UniProt Q9UK32); settings: Compound concentration 100.0 nM
[33] = target: STE20-like serine/threonine-protein kinase (Homo sapiens) (UniProt Q9H2G2); settings: Compound concentration 100.0 nM
[34] = target: Proto-oncogene tyrosine-protein kinase Src (Homo sapiens) (UniProt P12931); settings: Compound concentration 100.0 nM
[35] = target: Testis-specific serine/threonine-protein kinase 3 (Homo sapiens) (UniProt Q96PN8); settings: Compound concentration 100.0 nM
[36] = target: Serine/threonine-protein kinase WNK1 (Homo sapiens) (UniProt Q9H4A3); settings: Compound concentration 100.0 nM
[37] = target: Serine/threonine-protein kinase 32A (Homo sapiens) (UniProt Q8WU08); settings: Compound concentration 100.0 nM
Serine/threonine-protein kinase 32A (Homo sapiens), sequence (Q8WU08 whole entry): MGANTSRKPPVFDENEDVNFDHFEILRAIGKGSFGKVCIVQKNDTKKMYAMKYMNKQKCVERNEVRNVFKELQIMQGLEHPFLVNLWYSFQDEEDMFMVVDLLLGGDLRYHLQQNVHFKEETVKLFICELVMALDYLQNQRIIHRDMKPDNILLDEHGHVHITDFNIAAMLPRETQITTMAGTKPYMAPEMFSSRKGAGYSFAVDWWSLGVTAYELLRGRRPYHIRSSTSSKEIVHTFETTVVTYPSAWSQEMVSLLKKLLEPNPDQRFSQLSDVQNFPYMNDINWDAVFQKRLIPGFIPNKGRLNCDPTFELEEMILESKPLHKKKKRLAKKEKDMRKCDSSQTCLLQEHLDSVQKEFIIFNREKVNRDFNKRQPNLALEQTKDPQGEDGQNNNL

[38] = target: D(1A) dopamine receptor (Homo sapiens) (UniProt P21728); settings: Compound concentration 10.0 uM

BMP-2-inducible protein kinase (Homo sapiens), sequence (Q9NSY1 whole entry, looked up): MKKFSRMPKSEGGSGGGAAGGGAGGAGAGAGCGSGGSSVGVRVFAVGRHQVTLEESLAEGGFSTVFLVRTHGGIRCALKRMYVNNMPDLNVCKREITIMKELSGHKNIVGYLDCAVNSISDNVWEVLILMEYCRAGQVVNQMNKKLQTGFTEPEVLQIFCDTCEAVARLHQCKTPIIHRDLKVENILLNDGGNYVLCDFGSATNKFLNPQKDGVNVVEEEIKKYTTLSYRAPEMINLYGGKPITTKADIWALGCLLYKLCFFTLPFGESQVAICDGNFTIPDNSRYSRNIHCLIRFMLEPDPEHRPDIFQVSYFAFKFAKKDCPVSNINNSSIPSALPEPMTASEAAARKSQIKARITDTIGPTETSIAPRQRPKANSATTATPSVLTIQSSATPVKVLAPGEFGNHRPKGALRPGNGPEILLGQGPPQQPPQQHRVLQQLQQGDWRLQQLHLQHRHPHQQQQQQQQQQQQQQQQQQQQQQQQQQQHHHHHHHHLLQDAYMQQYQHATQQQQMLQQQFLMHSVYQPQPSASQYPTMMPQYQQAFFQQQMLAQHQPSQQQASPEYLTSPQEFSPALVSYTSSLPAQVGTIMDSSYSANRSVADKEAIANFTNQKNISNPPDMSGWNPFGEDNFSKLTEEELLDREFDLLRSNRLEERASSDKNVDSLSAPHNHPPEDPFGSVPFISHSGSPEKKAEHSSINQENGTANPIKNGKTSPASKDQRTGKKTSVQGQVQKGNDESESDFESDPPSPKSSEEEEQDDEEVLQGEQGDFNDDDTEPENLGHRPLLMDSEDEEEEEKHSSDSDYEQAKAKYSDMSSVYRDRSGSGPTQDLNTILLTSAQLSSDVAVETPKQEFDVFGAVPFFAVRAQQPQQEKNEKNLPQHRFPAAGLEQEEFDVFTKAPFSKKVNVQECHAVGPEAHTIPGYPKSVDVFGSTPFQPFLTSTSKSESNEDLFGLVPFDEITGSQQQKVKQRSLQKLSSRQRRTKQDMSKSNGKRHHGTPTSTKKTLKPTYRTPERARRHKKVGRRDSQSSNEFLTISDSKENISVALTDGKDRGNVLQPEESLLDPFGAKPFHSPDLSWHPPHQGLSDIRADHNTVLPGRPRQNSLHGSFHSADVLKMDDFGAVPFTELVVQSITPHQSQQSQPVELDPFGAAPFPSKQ

Cn1cc(Cl)c2c(Oc3c(F)cc(Nc4cc(Cl)nc(N)n4)cc3F)ccnc21 [BAY-4900]
inactive: residual activity [1] 75% | residual activity [2] 100% | residual activity [3] 100% | residual activity [4] 100% | residual activity [5] 100% | residual activity [6] 100% | residual activity [7] 91% | residual activity [8] 93% | residual activity [9] 89% | residual activity [10] 100% | residual activity [11] 100% | residual activity [12] 100% | residual activity [13] 100% | residual activity [14] 95% | residual activity [15] 69% | residual activity [16] 100% | residual activity [17] 99% | residual activity [18] 100% | residual activity [19] 80% | residual activity [20] 93% | residual activity [21] 99% | residual activity [22] 84% | residual activity [23] 100% | residual activity [24] 90% | residual activity [25] 100% | residual activity [26] 100% | residual activity [27] 100% | residual activity [28] 91% | residual activity [29] 95% | residual activity [30] 83% | residual activity [31] 71% | residual activity [32] 100% | residual activity [33] 98% | residual activity [34] 92% | residual activity [35] 100% | residual activity [36] 98% | residual activity [37] 89% | inhibition [38] 13.2%

Cc1c[nH]c2nccc(Oc3c(F)cc(Nc4cc(Cl)nc(N)n4)cc3F)c12 [BAY-549]
active: residual activity [15] 42% | residual activity [30] 0.9%
inactive: residual activity [1] 100% | residual activity [2] 100% | residual activity [3] 100% | residual activity [4] 92% | residual activity [5] 80% | residual activity [6] 94% | residual activity [7] 91% | residual activity [8] 100% | residual activity [9] 100% | residual activity [10] 100% | residual activity [11] 92% | residual activity [12] 99% | residual activity [13] 91% | residual activity [14] 90% | residual activity [16] 100% | residual activity [17] 81% | residual activity [18] 81% | residual activity [19] 99% | residual activity [20] 100% | residual activity [21] 98% | residual activity [22] 90% | residual activity [23] 99% | residual activity [24] 92% | residual activity [25] 98% | residual activity [26] 100% | residual activity [27] 100% | residual activity [28] 100% | residual activity [29] 100% | residual activity [31] 79% | residual activity [32] 99% | residual activity [33] 97% | residual activity [34] 100% | residual activity [35] 100% | residual activity [36] 90% | residual activity [37] 86% | inhibition [38] 16.1%
